What all share (type): in vivo, rat (Sprague Dawley)
The subject of assay [1] is Aspirin-induced lesions. Put plainly: Aspirin-induced gastric lesions in the rat, protective effect of ZAC. As to conditions: aspirin two doses of 200 mg/kg p.o. 12 hours apart, mean ± SD, n 10, p<0.01; for Macroscopic index: control 3.4 ± 0.2; for Microscopic index: scale 0 to 5, control 3.0 ± 0.3. The source says: (§1) In view of the more or less serious gastric intolerance to the different anti-inflammatory drugs, the possibility of inhibiting this side effect by way of the protective action of zinc […]) has been considered. Therefore, the protective effect of ZAC against gastric lesions induced by the most characteristic NSAIDs has been studied. The animal of election was the rat (Sprague Dawley), which was sacrificed after treatment with ZAC and NSAID. The stomach was extirpated, and macro and microscopic evaluations were made. The macroscopic evaluation was made following the method of Adami (1964, Arch. Int. Pharmacodyn., 147: 113-45) with slight modifications, consisting of evaluating the gravity and extension of the lesions, using a points system evaluating the lesions according to the number and/or size thereof. 0 - no lesion 1 - irritation or presence of a hemorrhagic area 2 - from 1 to 5 small ulcers 3 - many small ulcers (more than 5) or 1 large one 4 - many large ulcers 5 - perforated ulcer The overall value of the lesions is obtained by adding up the score of the lesions determined. Half of the stomachs of each animal group was taken for hystological processing, the microscopic lesions being valued according to a scale of 0 to 5, 0 being a lesion-free mucous membrane and 5 representing multiple erosions with hemorrhagic subfusions. two doses of 200 mg/kg p.o. were administered spaced apart by 12 hours. In both cases, ZAC was tested at dosages of: 50, 100 and 150 mg/kg and a control group received water.

Assay [2] relates to Ibuprofen-induced lesions. Put plainly: Ibuprofen-induced gastric lesions in the rat, protective effect of ZAC. As to conditions: ibuprofen single 200 mg/kg dose, mean ± SD; for Macroscopic index: n 10, control 2.4 ± 0.3; for Microscopic index: scale 0 to 5, n 5, control 2.8 ± 0.4.
Excerpt: as §1, with “a single” for “two doses of”, “dose was administered.” for “p.o. were administered spaced apart by 12 hours.”

Assay [3] deals with Phenylbutazone-induced lesions. Put plainly: Phenylbutazone-induced gastric lesions in the rat, protective effect of ZAC. Conditions: phenylbutazone total dose 80 mg/kg in two halves 2 hours apart, mean ± SD, n 10, control 2.8 ± 0.4, p<0.01. The source says:
In view of the more or less serious gastric intolerance to the different anti-inflammatory drugs, the possibility of inhibiting this side effect by way of the protective action of zinc acexamate (ZAC) has been considered. Therefore, the protective effect of ZAC against gastric lesions induced by the most characteristic NSAIDs has been studied. The animal of election was the rat (Sprague Dawley), which was sacrificed after treatment with ZAC and NSAID. The stomach was extirpated, and macro and microscopic evaluations were made. The macroscopic evaluation was made following the method of Adami (1964, Arch. Int. Pharmacodyn., 147: 113-45) with slight modifications, consisting of evaluating the gravity and extension of the lesions, using a points system evaluating the lesions according to the number and/or size thereof. 0 - no lesion 1 - irritation or presence of a hemorrhagic area 2 - from 1 to 5 small ulcers 3 - many small ulcers (more than 5) or 1 large one 4 - many large ulcers 5 - perforated ulcer
The overall value of the lesions is obtained by adding up the score of the lesions determined.
An additional, anti-ulcer activity index was calculated for phenylbutazone, obtained by expressing the lesion indexes as an inhibition percentage relative to the control group. The dose-response curve was determined from the percentages and the theoretical ED₅₀ was determined from the curve.
A total dose of 80 mg/kg of phenylbutazone was administered, half at the start of the experiment and the other half after 2 hours. The ZAC doses used were 75, 150 and 300 mg/kg. The animals were sacrificed 4 hours after the last ZAC administration.

The test system of assay [4] is Indomethacin-induced lesions. Kind of assay: Indomethacin-induced gastric lesions in the rat, protective effect of ZAC. Conditions: ZAC 200 mg/kg, indomethacin total 20 mg/kg in two doses of 10 mg/kg 12 hours apart, mean ± SD, p<0.01.
Excerpt: as §1, with “two doses of 200 mg/kg p.o. were administered spaced apart by 12 hours. In both cases, ZAC was tested at dosages of: 50, 100 and 150 mg/kg and a control group received water.” left out

As for zinc acexamate [ZAC], the Macroscopic index in assay [1] (ZAC 50 mg/kg) came out at 2.3 ± 0.3; in assay [1] (ZAC 100 mg/kg), 2.1 ± 0.3; in assay [1] (ZAC 150 mg/kg), 1.9 ± 0.3; in assay [2] (ZAC 50 mg/kg, p<0.01), 1.6 ± 0.4; in assay [2] (ZAC 100 mg/kg, p<0.01), 1.7 ± 0.3; in assay [2] (ZAC 150 mg/kg, p<0.01), 1.5 ± 0.2. The Macroscopic index in assay [3] (ZAC 75 mg/kg) is 1.3 ± 0.5; in assay [3] (ZAC 150 mg/kg), 0.4 ± 0.3; in assay [3] (ZAC 300 mg/kg), 2.0 ± 0.2; in assay [4] (n 10, control 4.3 ± 0.4), 1.8 ± 0.3. For the same substance, the Microscopic index in assay [1] (ZAC 50 mg/kg) was 1.8 ± 0.2; in assay [1] (ZAC 100 mg/kg), 2.0 ± 0.2; in assay [1] (ZAC 150 mg/kg), 2.3 ± 0.2; in assay [2] (ZAC 50 mg/kg, p<0.05), 2.2 ± 0.2; in assay [2] (ZAC 100 mg/kg, NS), 2.4 ± 0.2 NS; in assay [2] (ZAC 150 mg/kg, p<0.01), 2.0 ± 0.03. Moreover, the Microscopic index in assay [4] (scale 0 to 5, n 5, control 4.0 ± 0.7) is 5 2.1 ± 0.2.

The values above are taken from patent EP0369088A1, “Use of zinc acexamate in the prophylaxis of gastropathy induced by non-steroidal anti-inflammatory drugs” (LABORATORIOS VINAS S.A., priority 1988, dated 1990).
